{"source": "patent US12661355B2", "about": "“Compounds and methods for inducing UCP1 expression” (The Regents of the University of California, priority 2020, dated 2026)", "key": {"Ucp1": {"tested_on": "Ucp1", "assay": "Gene expression by qPCR in primary brown adipocytes", "assay_type": "cell-based, mouse", "details": "for expression of markers of brown adipocyte identity, mitochondrial function and fatty acid oxidation genes / endogenous Ucp1 expression: 10 μM; for endogenous Ucp1 expression: primary mouse brown adipocytes", "method": "Primary brown adipocytes were isolated according to known methods. An established mouse brown adipocyte cell line was obtained from Dr. Bruce Spiegelman (Dana-Farber Cancer Institute, Boston, USA). To differentiate primary and immortalized brown adipocytes, cells were grown until confluency in DMEM containing 10% FBS, 25 mM glucose 1 mM pyruvate, 2 mM glutamine, 20 nM insulin, 1 nM T3, and antibiotics. Once confluent (day 0), differentiation was induced by supplementing the medium with 0.5 mM IBMX, 0.5 μM dexamethasone, and 0.125 mM indomethacin, for 2 days. Differentiation was continued in the original medium (without IBMX, dexamethasone and indomethacin) for 7-10 days.\nRNA levels were measured by qPCR according to known methods. Briefly, RNA was extracted with TRIzol (Invitrogen) and reverse transcribed with iScript (Bio-Rad). Real-time PCR analysis was performed with a CFX Connect (Bio-Rad).\nMouse RNA levels were measured by qPCR according to known methods. Data were normalized to B2m and Tbp reference genes. Human RNA was extracted using an RNA Mini Plus kit (Zymo) and gene expression determined by Taqman assay. The 1-step qPCR was run on a QuantStudio 12K Flex Real Time PCR System (ThermoFisher) using the following protocol: 50° C. for 5 minutes, 95° C. for 20 seconds, 40 cycles of 95° C. for 15 seconds and 60° C. for 60 seconds. Data were normalized to PPIA and PSMB2 reference genes. For global gene expression analysis, RNA isolated from brown adipocytes treated with compounds as indicated (four biological replicates) was hybridized to Illumina mouse Ref 8 V2.0 bead chips at the University of California, Los Angeles Neuroscience Genomics Core as previously described. Data were processed with GenomeStudio V2011.1 using the quantile normalization, background subtraction, and a present call of P<0.05."}, "AKAP1": {"biological_target": "T1, AKAP1 (Mus musculus, UniProt O08715)", "T1 construct": "from tissue; host or cells: mouse brown adipose tissue (BAT) lysate; also mouse brown adipocyte extracts", "T1 sequence (O08715 30-857)": "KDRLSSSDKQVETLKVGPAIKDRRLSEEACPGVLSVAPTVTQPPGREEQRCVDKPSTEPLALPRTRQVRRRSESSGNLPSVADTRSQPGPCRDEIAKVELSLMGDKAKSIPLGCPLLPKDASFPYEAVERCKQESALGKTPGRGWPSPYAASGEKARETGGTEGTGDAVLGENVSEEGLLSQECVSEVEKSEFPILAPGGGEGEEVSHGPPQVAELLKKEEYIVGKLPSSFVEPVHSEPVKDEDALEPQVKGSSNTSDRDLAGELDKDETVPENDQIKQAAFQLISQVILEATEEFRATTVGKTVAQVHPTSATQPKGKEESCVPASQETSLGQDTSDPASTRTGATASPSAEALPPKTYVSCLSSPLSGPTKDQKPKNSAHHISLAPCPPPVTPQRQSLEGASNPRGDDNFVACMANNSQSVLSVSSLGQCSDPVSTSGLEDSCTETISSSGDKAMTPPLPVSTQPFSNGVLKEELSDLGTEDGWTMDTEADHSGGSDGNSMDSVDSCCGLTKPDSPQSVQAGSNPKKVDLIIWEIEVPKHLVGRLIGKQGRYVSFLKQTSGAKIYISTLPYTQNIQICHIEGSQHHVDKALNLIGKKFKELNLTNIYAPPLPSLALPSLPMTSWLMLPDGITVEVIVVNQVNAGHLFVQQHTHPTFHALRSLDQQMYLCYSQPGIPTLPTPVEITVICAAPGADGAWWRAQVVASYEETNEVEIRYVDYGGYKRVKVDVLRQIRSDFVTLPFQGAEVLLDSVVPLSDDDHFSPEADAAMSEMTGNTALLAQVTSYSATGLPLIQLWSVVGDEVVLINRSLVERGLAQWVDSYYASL", "assay": "Drug Affinity Responsive Target Stability (DARTS) in BAT or brown adipocyte extracts, AKAP1", "assay_type": "binding", "details": "1 h; for effect on AKAP1 (pronase susceptibility): mouse brown adipocyte extracts, 20 μM (CL316,243 20 nM)", "method": "[…] assays were performed according to known methods. Briefly, BAT or cells within a 10 cm dish were lysed with 600 μl M-PER buffer containing protease and phosphatase inhibitors. Debris was pelleted by centrifugation at 18,000 g for 10 min at 4° C., and the lysates were harvested and supplemented with TNC buffer (50 mM Tris-HCl, 50 mM NaCl, 10 mM CaCl2). The lysates were split into two tubes and treated with either vehicle or 20 μM Z160 for 1 h at room temperature. For experiment with BAT, 100 μg of lysate was incubated with different Z160 concentrations. Different concentrations of pronase (from 1:100 to 1:10,000 dilution from a 1.25 mg/ml pronase stock) were incubated with the samples for 30 min at room temperature and the reaction was stopped with SDS loading buffer followed immediately by heating at 70° C. for 10 min. Protein lysates were separated by SDS-PAGE and transferred to a nitrocellulose membrane. After blocking in 5% milk, 0.1% Tween-20 in Tris-buffered saline (TBS), primary antibody was incubated overnight at 4° C. in 5% bovine serum albumin and 0.1% Tween-20 in TBS. Primary antibodies against AKAP1 (5203, Cell Signaling), AKAP13 (39715, One World Lab), GAPDH (GTX100118, Genetex), OPA1 (39557, One World Lab), PKA C-α (4782, Cell Signaling), PKA RII-β (ab75993, Abcam), were used at 1:2000. A goat anti-rabbit secondary antibody (sc-2030, Santa Cruz Biotechnology, Inc) was used at a 1:10,000 dilution for 1 h at room temperature in 5% milk and 0.1% Tween-20 in TBS.\nThe PKA tetramer consists of two catalytic and two regulatory subunits. In the mouse, these are catalytic subunits C-α and C-β, and regulatory subunits RI and RII, each with α and β isoforms (RI-α, RI-β, RII-α, RII-β). PKA is also bound to a family of anchoring proteins, A-kinase anchoring proteins (AKAPs), which allow the compartmentalization of cAMP signaling. To investigate whether Z160 binds PKA complex proteins, two techniques were applied both of which rely on ligand-induced alterations in protein stability: Cellular Thermal Shift Assay (CETSA) and Drug Affinity Responsive Target Stability (DARTS). CETSA is based on the principle that ligand binding will change the temperature at which a protein starts to unfold and aggregate, while DARTS relies on the protection of a protein from proteolysis upon specific binding to a small molecule.\nTo provide further evidence for an interaction between Z160 and AKAP1, DARTS assays were employed. Lysates from brown fat were treated with different Z160 concentrations for 1 h followed by pronase digestion and immunoblotting. […] The effect of Z160 on AKAP1 was confirmed using mouse brown adipocyte extracts (FIG. 15A)."}}}
{"smiles": "O=C(CSc1nc2ccccc2c(=O)[nH]1)Nc1ccc2c(c1)OCCO2", "note": "[AST070, N-(2,3-dihydro-1,4-benzodioxin-6-yl)-2-[(4-oxo-3,4-dihydroquinazolin-2-yl)sulfanyl]acetamide]", "values": [{"measurement": "expression of markers of brown adipocyte identity, mitochondrial function and fatty acid oxidation genes", "setting": "Ucp1; primary brown adipocytes", "result": "promoted expression"}, {"measurement": "endogenous Ucp1 expression", "setting": "Ucp1", "result": 29, "unit": "fold"}, {"measurement": "effect on AKAP1 (pronase susceptibility)", "setting": "AKAP1", "result": "effect of AST070 or Z160 on AKAP1"}]}
{"smiles": "COc1ccc(NC(=O)CSc2nc3ccccc3c(=O)[nH]2)c(OC)c1", "note": "[Z160]", "values": [{"measurement": "expression of markers of brown adipocyte identity, mitochondrial function and fatty acid oxidation genes", "setting": "Ucp1; primary brown adipocytes", "result": "promoted expression"}, {"measurement": "expression of lipolytic enzymes (Atgl, Hsl) and FGF21 at the mRNA level", "setting": "Ucp1; primary brown adipocytes, 10 μM overnight", "result": "increased expression"}, {"measurement": "endogenous Ucp1 expression", "setting": "Ucp1", "result": 62, "unit": "fold"}, {"measurement": "pronase susceptibility of AKAP1", "setting": "AKAP1; brown fat lysates, pronase 1:4000", "result": "altered pronase susceptibility"}, {"measurement": "effect on AKAP1 (pronase susceptibility)", "setting": "AKAP1", "result": "confirmed"}]}
